In patent publication US20090137628A1, “Formulations of Indanylamines and the Use Thereof as Local Anesthetics and as Medication for Chronic Pain” (BRIDGE PHARMA, INC., priority 2005, published 2009):

Key:
[1] = test system: Na+ channel (site 2) in the rat cerebral cortex; conditions: 10 nM [3H]batrachotoxin, 60 min at 22° C., rat cerebral cortex membranes; read-out: IC50-values for inhibition of batrachotoxinin binding
guinea pigs = test: Dermal anesthetic activity after dermal application, pinprick method (algesimeter); format: in vivo, guinea pig; conditions: highest score over time after patch removal, 5.0% solution
Procedure: The purpose of this study was to determine the degree to which various salt forms of LAC-34 contribute to the local dermal anesthetic effect of the compound, following dermal application to guinea pigs.
Four groups of six male guinea pigs received a dose of 2.0 ml of a 5.0% solution of four test articles (LAC-34 base, LAC-34 mono-HCl, LAC-34-di HCl and LAC-34 mesylate) that had been applied onto a two inch square, 4 layer thick gauze pad on depilated dosal skin of each guinea pig. Similarly, one group of guinea pigs received the vehicle, which consisted of DMSO/water (90 percent/10 percent, v/v) and served as the control group. The gauze was occluded and the guinea pigs were wrapped for 30 min. Animals were assessed for initial pain reaction (anesthetic depth) at 15 minute intervals up to 3 hours and at 24 hours. An algesimeter, set at 10 g, was employed to assess the onset and depth of anesthesia using the pinprick method causing a twitch response or non-response. The “Average Anesthetic Score” was defined as number of probings not producing a dermal twitch response. Thus, a situation where there were no dermal twitch responses to six probings represent a maximal anesthetic effect and is denoted as an Average Anesthetic Score of 6.

[2] = test system: animal models of neuropathic pain; test: Animal models of neuropathic pain; format: in vivo; conditions: potentiated by addition of capsaicin
[3] = Saturation solubility in key solvents for dermal drug delivery; format: physicochemical
Procedure: A liquid's capability to solubilize LAC-34 was screened by adding a known mass of LAC-34 to a known volume/mass of liquid. Saturation solubility was measured by adding an excess of drug substance and allowing the suspension to equilibrate while stirring for 2-3 days. A sample of the suspension was filtered though a 0.2 μm PTFE membrane followed by dilution (if required) and HPLC analysis. For several mixed solvent systems that included water, a known mass of drug substance was dissolved in a known mass of solvent(s). This solution was then titrated with water while stirring until the solution became cloudy.
HPLC analysis was performed with a HP 1050 system (He degasser, quaternary pump, auto-injector, and variable wavelength detector). The column heater was manufactured by Waters. Data collection and analysis was performed using Chemstation® software.
The saturation solubility of LAC-34 was measured in capric/caprylic triglycerides (CCT), dimethylsulfoxide (DMSO), ethanol, isopropanol, isopropyl myristate (IPM), pentane, propylene glycol (PG), and water. […]
All of the solvents, with the exception of water, were able to dissolve large quantities of LAC-34. […] Propylene glycol (PG), which has multiple actions for dermal drug delivery (see Table 1), was also able to solubilize significant quantities of LAC-34. […]

[4] = Physical state of LAC-34 solutions at 4° C.; format: physicochemical; conditions: 20% LAC-34 in benzyl alcohol
[5] = Solubility in ternary solvent mixture with water as anti-solvent; format: physicochemical; conditions: 150 mg LAC-34 free base; 1 ml polyethylene glycol + 1 ml ethanol + 0.6 ml water
[6] = Local vasodilatation at the dermal injection site; format: in vivo; conditions: contrary to lidocaine

Q: For `c1ccc(N(CCC2CCCCN2)C2Cc3ccccc3C2)cc1` (racemic) [LAC-34, 2-[2-(N-Phenyl-N-2-indanyl)aminoethyl]piperidine], which IC50 [1] is on record?
A: Its IC50 is 270 nM.

Q: What about the “Maximal depth of anesthesia (Average Anesthetic Score)” value (guinea pigs) of the same compound?
A: Its value is 4.8.

Q: What about the Analgesic activity [2] of the same compound?
A: Its Analgesic activity is “exerts analgesic activity”.

Q: What about the Solubility in isopropanol ([3]; 0.25 g LAC-34 solubilized once isopropanol level was 0.225 g) of the same compound?
A: Its Solubility in isopropanol is “approximately 526 mg/mL”.

Q: What about the “LAC-34 Solubility (saturation)” value ([3]; solvent as printed on the line: Propylene glycol (PG)) of the same compound?
A: Its value is 5 µg/mL.

Q: And the “Physical state at 4° C.” value [4]?
A: Its value is “still a solution”.

Q: What about the “Solubility in ternary solvent mixture” value [5] of the same compound?
A: Its value is 5.5 % (w/w).

Q: And the “Local vasodilatation at the dermal injection site” value [6]?
A: Its value is “not to cause local vasodilatation”.
